PubChem BioAssay (NCI)
“And” between values parts separate entries of the source, which are not always exact repeats. Identical values can stand only once.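 1) Cells in 96-well plates. 2) Compound, 48 h, 5 concentrations. 3) Linear interpolation between surrounding doses. 4) Unreached endpoint = highest concentration. At the GI50, growth is halved. TGI: concentration producing complete growth inhibition.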

Legend:
Experiment in all cases: NCI-60 cell line screen, 48 h
SF-539 CNS = tested on: SF-539 CNS
HCC-2998 colon = tested on: HCC-2998 colon
U251 CNS = tested on: U251 CNS
HCT-116 colon = tested on: HCT-116 colon
HT29 colon = tested on: HT29 colon
SN12C renal = tested on: SN12C renal
SF-268 CNS = tested on: SF-268 CNS
SK-OV-3 ovarian = tested on: SK-OV-3 ovarian
SK-MEL-2 melanoma = tested on: SK-MEL-2 melanoma
LOX IMVI melanoma = tested on: LOX IMVI melanoma

Compound | TGI (SF-539 CNS) [µM] | TGI (HCC-2998 colon) [µM] | TGI (U251 CNS) [µM] | TGI (HCT-116 colon) [µM] | TGI (HT29 colon) [µM] | TGI (SN12C renal) | TGI (SF-268 CNS) [µM] | TGI (SK-OV-3 ovarian) [µM] | TGI (SK-MEL-2 melanoma) [µM] | TGI (LOX IMVI melanoma) | GI50 (SF-539 CNS) [µM] | GI50 (HCC-2998 colon) [µM] | GI50 (U251 CNS) [µM] | GI50 (HCT-116 colon) [µM] | GI50 (HT29 colon) [µM] | GI50 (SN12C renal) | GI50 (SF-268 CNS) [µM] | GI50 (SK-OV-3 ovarian) [µM] | GI50 (SK-MEL-2 melanoma) [µM] | GI50 (LOX IMVI melanoma)
CC(=O)OC1C(COC(N)=O)OC(n2c(-c3ccc(C)cc3)cc(-c3ccccc3)c(C#N)c2=O)C(OC(C)=O)C1OC(C)=O (stereo not given) | > 100 | > 100 | > 100 | > 100 | > 100 | > 100 µM | > 100 | > 100 | > 100 | > 100 µM |  |  |  |  |  |  |  |  |  | 
CCN1C2=C(SC(=S)C1=C1SC(C(=O)c3ccccc3)=C(C(=O)c3ccccc3)S1)SC(=Nc1ccccc1)C2=O | > 100 | > 100 | > 60.5 | 38.7 | > 100 | > 100 µM | > 100 | > 100 | > 47.3 | 7.06 µM | 14.4 | > 100 | 3.39 | 2.66 | 16.5 | 46 µM | 8.24 | > 96.7 | 7.74 | 1.43 µM
CC(C)c1ccc2c(c1)CCC1C(C)(CN)CCCC21C (stereo not given) | 3.36 | 0.485 | 2.83 | 2.93 | 2.39 | 3.16 µM | 3.22 | 3.98 | 3.15 | 2.99 µM |  |  |  |  |  |  |  |  |  | 
O=C(NCCCNc1cc(-c2cn(-c3ccccc3)nc2-c2cccc(O)c2)ccn1)c1ccc(F)cc1 | 5.41 | 3.4 | 10.9 | 7.38 | 5.43 | 30.8 µM | 26.9 | 24.2 | 5.06 | 5.88 µM | 2.15 | 1.83 | 2.96 | 2.14 | 1.7 | 4.29 µM | 2.99 | 3.39 | 2.18 | 2.27 µM
CC(=O)N[C@@H](Cc1ccc(OP(=O)(O)O)cc1)C(=O)N[C@H]1CCC(=O)N2CCC[C@@H](C(=O)NCc3cccc4ccccc34)N2C1=O | > 25 | > 25 | > 25 | > 25 | > 25 | > 25 µM | > 25 | > 25 | > 25 | > 25 µM | > 25 | > 25 | > 25 | > 25 | > 25 | > 25 µM | > 25 | > 25 | > 25 | > 25 µM
NNC(=S)N/N=C/c1ccccn1 | 9.32 | > 100 | > 100 | > 100 | > 100 | > 100 µM | > 100 | > 100 | > 100 | > 100 µM | 2.06 | 3.12 | 1.99 | 1.66 | 3.54 | 2.61 µM | 1.58 | 2.89 | 2.86 | 2.3 µM
CN(CCNc1ccc(C(=N)N)cc1)c1ccc(C(=N)N)cc1 | > 100 | > 100 | > 100 | > 100 | > 100 | > 100 µM | > 100 | > 100 | > 100 | > 100 µM | 35.1 | 97.3 | 30.6 | > 100 | 80.8 | 5.53 µM | 37.8 | 34.5 | 18 | > 100 µM
O=C(/C=C/c1cccnc1)c1ccccc1 | 28.6 | 29.1 | 15.1 | 5.83 | 5.92 | 25.9 µM | 30 | 27.9 | 27 | 3.62 µM | 13.3 | 14.9 | 3.85 | 2.14 | 2.31 | 12.2 µM | 14.4 | 14.6 | 13.5 | 1.86 µM
CC[n+]1c(/C=C/c2ccc(N3CCCC3)cc2)cccc1/C=C/c1ccc(N2CCCC2)cc1 | 1.44 | 0.338 | 1.04 | 1.28 | 0.375 | 1.14 µM and 1.06 µM | 1.58 | 0.897 | 2.38 | 1.62 µM and 1.45 µM | 0.274 | 0.181 | 0.202 | 0.0838 | 0.115 | 0.217 µM and 0.271 µM | 0.449 | 0.228 | 0.56 | 0.22 µM and 0.145 µM
O=C(CSc1nc2ccc([N+](=O)[O-])cc2[nH]1)Nc1ccc([N+](=O)[O-])cc1 | 11.9 | 15.3 | 15.5 | > 32.6 | 10.6 | 10.6 µM | 14.5 | 5.59 | 5.81 | 12.2 µM | 2.96 | 3 | 2.62 | 2.7 | 2.82 | 2.26 µM | 2.72 | 1.89 | 1.97 | 2.75 µM
O=P1(O)c2ccccc2CSCc2ccccc21 | > 100 | > 100 | > 100 | > 100 | > 100 | > 100 µM | > 100 | > 100 | > 100 | > 100 µM |  |  |  |  |  |  |  |  |  | 
O=C(O)COc1ccc2c3c1C(=O)CCC3CO2 (stereo not given) | > 100 | > 100 | > 100 | > 100 | > 100 | > 100 µM | > 100 | > 100 | > 100 | > 100 µM |  |  |  |  |  |  |  |  |  | 
OCC(O)COc1ccc(F)cc1 (stereo not given) | > 100 | > 100 | > 100 | > 100 | > 100 | > 100 µM | > 100 | > 100 | > 100 | > 100 µM |  |  |  |  |  |  |  |  |  | 
CC1=CC=C2C(C)(C)CC[C@@H]3OC(=O)[C@H]1[C@]23C | > 100 | > 100 | > 100 | > 100 | > 100 | > 100 µM | > 100 | > 100 | > 100 | > 100 µM |  |  |  |  |  |  |  |  |  | 
O=C1NC(=N[C@@H]2C[C@H]2c2ccccc2)S/C1=C\c1ccc2ncccc2c1 | 5.07 | 18.4 | 6.94 | 5.72 | 9.04 | > 25 µM | 8.02 | 4.06 | 9.55 | 12.1 µM | 1.04 | 1.93 | 0.875 | 0.839 | 1.12 | 1.68 µM | 2.25 | 1.06 | 4 | 1.22 µM
